Data from patent US20250311727A1, “SUBSTITUTED 2-AMINOAZINES AND SALTS THEREOF, AND USE THEREOF AS HERBICIDAL ACTIVE SUBSTANCES” (BAYER AKTIENGESELLSCHAFT, priority 2022, published 2025).

Tests used:
Assay type in all cases: in vivo
Stellaria media [1] = assay: Pre-emergence herbicide efficacy at 320 g/ha, STEME; conditions: scored visually after about 3 weeks vs untreated controls, 100% = plants have died
In short: (§1)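 Seeds were sown in sandy loam and covered with soil; WP or EC formulations were then sprayed onto the soil surface at 320 g/ha in 600 L/ha water with 0.5% additive. After about 3 weeks in the greenhouse, efficacy was scored visually as % versus untreated controls (100% = plants dead, 0% = like control).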

Kochia scoparia [2] = assay: Pre-emergence herbicide efficacy at 320 g/ha, KCHSC; conditions: scored visually after about 3 weeks vs untreated controls, 100% = plants have died
In short: as §1

Amaranthus retroflexus [3] = assay: Pre-emergence herbicide efficacy at 80 g/ha, AMARE; conditions: scored visually after about 3 weeks vs untreated controls, 100% = plants have died
In short: (§2)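 Pre-emergence test: pots sown with weed seeds, then compound (WP or EC) sprayed on the covering soil as aqueous suspension/emulsion with 0.5% additive at 600 l/ha water, here 80 g/ha. Greenhouse growth for about 3 weeks. Efficacy scored visually versus untreated controls, 0% (as control) to 100% (plants died).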

Viola tricolor [4] = assay: Pre-emergence herbicide efficacy at 80 g/ha, VIOTR
In short: as §2

Kochia scoparia [5] = assay: Post-emergence herbicidal efficacy at 80 g/ha, KCHSC; conditions: rated visually after about 3 weeks vs untreated controls, 100% = plants have died
In short: (§3)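 Weeds grown in sandy loam under greenhouse conditions and sprayed post-emergence at the one-leaf stage (2–3 weeks after sowing) with WP or EC formulations plus 0.5% additive, 600 l/ha water. Activity scored visually about 3 weeks later versus untreated controls (0% = like control, 100% = plants dead).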

Matricaria inodora [6] = assay: Pre-emergence herbicide efficacy at 320 g/ha, MATIN; conditions: scored visually after about 3 weeks vs untreated controls, 100% = plants have died
Text: (§4) Unwanted plants/weeds: • ABUTH: Abutilon theophrasti • ALOMY: Alopecurus myosuroides • AMARE: Amaranthus retroflexus • DIGSA: Digitaria sanguinalis • ECHCG: Echinochloa crus-galli • KCHSC: Kochia scoparia • LOLRI: Lolium rigidum • MATIN: Matricaria inodora • POAAN: Poa annua • POLCO: Polygonum convolvulus • SETVI: Setaria viridis • STEME: Stellaria media • VERPE: Veronica persica • VIOTR: Viola tricolor A. Post-Emergence Herbicidal Efficacy at 320 g/ha
(§5) Seeds of mono- and dicotyledonous weed plants were placed in plastic pots in sandy loam soil (doubly sown with one species each of mono- or dicotyledonous weed plants per pot) and covered with soil. The compounds of the invention, formulated in the form of wettable powders (WP) or as emulsion concentrates (EC), were then applied to the surface of the covering soil as aqueous suspension or emulsion with addition of 0.5% additive at a water application rate of 600 litres per hectare (converted). After the treatment, the pots were placed in a greenhouse and kept under good growth conditions for the test plants. After about 3 weeks, the efficacy of the preparations was scored visually in comparison with untreated controls as percentages.
(§6) For example, 100% activity=the plants have died, 0% activity=like control plants.
(§7) Tables C1 to C12 below show the effects of selected compounds of the general formula (I) according to Table 1 on various harmful plants and at an application rate corresponding to 320 g/ha, which were obtained by the trial procedure specified above.

Veronica persica [7] = assay: Pre-emergence herbicide efficacy at 80 g/ha, VERPE
Text: as §4
(§8) Seeds of monocotyledonous and dicotyledonous weed plants and crop plants were placed in plastic or organic planting pots and covered with soil. The compounds of the invention, formulated in the form of wettable powders (WP) or as emulsion concentrates (EC), were then applied to the surface of the covering soil as aqueous suspension or emulsion with addition of 0.5% additive at a water application rate equivalent to 600 l/ha. After the treatment, the pots were placed in a greenhouse and kept under good growth conditions for the test plants. After about 3 weeks, the efficacy of the preparations was scored visually in comparison with untreated controls as percentages. For example, 100% activity=the plants have died, 0% activity=like control plants.
(§9) Tables D1 to D12 below show the effects of selected compounds of the general formula (I) according to Table 1 on various harmful plants and an application rate corresponding to 80 g/ha, which were obtained by the experimental procedure mentioned above.

Abutilon theophrasti [8] = assay: Pre-emergence herbicide efficacy at 320 g/ha, ABUTH; conditions: scored visually after about 3 weeks vs untreated controls, 100% = plants have died
In short: as §1

Stellaria media [9] = assay: Post-emergence herbicidal efficacy at 320 g/ha, STEME; conditions: rated visually after about 3 weeks vs untreated controls, 100% = plants have died
In short: (§10)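 Weeds grown from seed in sandy loam in the greenhouse were sprayed at the one-leaf stage, 2 to 3 weeks after sowing. WP or EC formulations were applied as aqueous spray with 0.5% additive at 600 L/ha. Injury was scored visually about 3 weeks later against untreated controls (0% = like control, 100% = dead).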

Amaranthus retroflexus [10] = assay: Post-emergence herbicidal efficacy at 320 g/ha, AMARE; conditions: rated visually after about 3 weeks vs untreated controls, 100% = plants have died
In short: as §10

Poa annua [11] = assay: Post-emergence herbicidal efficacy at 320 g/ha, POAAN; conditions: rated visually after about 3 weeks vs untreated controls, 100% = plants have died
In short: as §10

Digitaria sanguinalis [12] = assay: Post-emergence herbicidal efficacy at 320 g/ha, DIGSA; conditions: rated visually after about 3 weeks vs untreated controls, 100% = plants have died
In short: as §10

Digitaria sanguinalis [13] = assay: Pre-emergence herbicide efficacy at 80 g/ha, DIGSA; conditions: scored visually after about 3 weeks vs untreated controls, 100% = plants have died
Text: as §4, §8, §9

Veronica persica [14] = assay: Post-emergence herbicidal efficacy at 80 g/ha, VERPE; conditions: rated visually after about 3 weeks vs untreated controls, 100% = plants have died
In short: as §3

Matricaria inodora [15] = assay: Pre-emergence herbicide efficacy at 80 g/ha, MATIN; conditions: scored visually after about 3 weeks vs untreated controls, 100% = plants have died
Text: as §4, §8, §9

Amaranthus retroflexus [16] = assay: Post-emergence herbicidal efficacy at 80 g/ha, AMARE; conditions: rated visually after about 3 weeks vs untreated controls, 100% = plants have died
In short: as §3

Setaria viridis [17] = assay: Pre-emergence herbicide efficacy at 320 g/ha, SETVI; conditions: scored visually after about 3 weeks vs untreated controls, 100% = plants have died
In short: as §1

Setaria viridis [18] = assay: Post-emergence herbicidal efficacy at 320 g/ha, SETVI; conditions: rated visually after about 3 weeks vs untreated controls, 100% = plants have died
Text: as §4
Seeds of mono- and dicotyledonous weed plants were placed in plastic pots in sandy loam soil (doubly sown with in each case one species of mono- or dicotyledonous weed plants per pot), covered with soil and cultivated in a greenhouse under controlled growth conditions. 2 to 3 weeks after sowing, the test plants were treated at the one-leaf stage. The compounds of the invention, formulated in the form of wettable powders (WP) or as emulsion concentrates (EC), were applied to the green parts of the plants as aqueous suspension or emulsion with addition of 0.5% additive at a water application rate equivalent to 600 litres per hectare. After the test plants had been kept in the greenhouse under optimum growth conditions for about 3 weeks, the activity of the preparations was rated visually in comparison to untreated controls.
as §6
Tables A1 to A10 below show the effects of selected compounds of the general formula (I) according to Table 1 on various harmful plants and at an application rate corresponding to 320 g/ha, which were obtained by the trial procedure specified above.

Echinochloa crus-galli [19] = assay: Pre-emergence herbicide efficacy at 80 g/ha, ECHCG; conditions: scored visually after about 3 weeks vs untreated controls, 100% = plants have died
Text: as §4, §8, §9

Veronica persica [20] = assay: Post-emergence herbicidal efficacy at 320 g/ha, VERPE; conditions: rated visually after about 3 weeks vs untreated controls, 100% = plants have died
In short: as §10

Veronica persica [21] = assay: Pre-emergence herbicide efficacy at 320 g/ha, VERPE; conditions: scored visually after about 3 weeks vs untreated controls, 100% = plants have died
In short: as §1

Echinochloa crus-galli [22] = assay: Pre-emergence herbicide efficacy at 320 g/ha, ECHCG; conditions: scored visually after about 3 weeks vs untreated controls, 100% = plants have died
In short: as §1

Echinochloa crus-galli [23] = assay: Post-emergence herbicidal efficacy at 320 g/ha, ECHCG; conditions: rated visually after about 3 weeks vs untreated controls, 100% = plants have died
In short: as §10

Amaranthus retroflexus [24] = assay: Pre-emergence herbicide efficacy at 320 g/ha, AMARE; conditions: scored visually after about 3 weeks vs untreated controls, 100% = plants have died
In short: as §1

Kochia scoparia [25] = assay: Pre-emergence herbicide efficacy at 80 g/ha, KCHSC; conditions: scored visually after about 3 weeks vs untreated controls, 100% = plants have died
Text: as §4, §8, §9

Polygonum convolvulus = assay: Pre-emergence herbicide efficacy at 80 g/ha, POLCO; conditions: scored visually after about 3 weeks vs untreated controls, 100% = plants have died
Text: as §4, §8, §9

Poa annua [26] = assay: Pre-emergence herbicide efficacy at 320 g/ha, POAAN; conditions: scored visually after about 3 weeks vs untreated controls, 100% = plants have died
In short: as §1

Kochia scoparia [27] = assay: Post-emergence herbicidal efficacy at 320 g/ha, KCHSC; conditions: rated visually after about 3 weeks vs untreated controls, 100% = plants have died
In short: as §10

Lolium rigidum = assay: Pre-emergence herbicide efficacy at 320 g/ha, LOLRI; conditions: scored visually after about 3 weeks vs untreated controls, 100% = plants have died
Text: as §4, §5, §6, §7

Viola tricolor [28] = assay: Post-emergence herbicidal efficacy at 80 g/ha, VIOTR; conditions: rated visually after about 3 weeks vs untreated controls, 100% = plants have died
Text: as §4
Seeds of monocotyledonous and dicotyledonous weeds and crop plants were placed in sandy loam in plastic or organic planting pots, covered with soil and cultivated in a greenhouse under controlled growth conditions. 2 to 3 weeks after sowing, the test plants were treated at the one-leaf stage. The compounds of the invention, formulated in the form of wettable powders (WP) or as emulsion concentrates (EC), were then sprayed onto the green parts of the plants as aqueous suspension or emulsion with addition of 0.5% additive at a water application rate of 600 l/ha (converted). After the test plants had been kept in the greenhouse under optimum growth conditions for about 3 weeks, the activity of the preparations was rated visually in comparison to untreated controls. For example, 100% activity=the plants have died, 0% activity=like control plants.
Tables B1 to B11 below show the effects of selected compounds of the general formula (I) according to Table 1 on various harmful plants and an application rate corresponding to 80 g/ha, which were obtained by the experimental procedure mentioned above.

Abutilon theophrasti [29] = assay: Post-emergence herbicidal efficacy at 320 g/ha, ABUTH; conditions: rated visually after about 3 weeks vs untreated controls, 100% = plants have died
In short: as §10

Setaria viridis [30] = assay: Pre-emergence herbicide efficacy at 80 g/ha, SETVI
In short: as §2

Digitaria sanguinalis [31] = assay: Pre-emergence herbicide efficacy at 320 g/ha, DIGSA; conditions: scored visually after about 3 weeks vs untreated controls, 100% = plants have died
In short: as §1

Compound: N#Cc1cccc(Nc2ncc(F)cn2)c1-n1cc(C(F)(F)F)cn1 [Example 1-60]
- Pre-emergence efficacy at 320 g/ha against STEME in % (Stellaria media [1]): 100%
- Pre-emergence efficacy at 320 g/ha against KCHSC in % (Kochia scoparia [2]): 100%
- Pre-emergence efficacy at 80 g/ha against AMARE in % (Amaranthus retroflexus [3]): 100%
- Pre-emergence efficacy against VIOTR (Viola tricolor [4]): 100%
- Post-emergence efficacy at 80 g/ha against KCHSC in % (Kochia scoparia [5]): 100%
- Pre-emergence efficacy at 320 g/ha against MATIN in % (Matricaria inodora [6]): 100%
- Pre-emergence efficacy against VERPE (Veronica persica [7]): 80%
- Pre-emergence efficacy at 320 g/ha against ABUTH in % (Abutilon theophrasti [8]): 90%
- Post-emergence efficacy at 320 g/ha against STEME in % (Stellaria media [9]): 100%
- Post-emergence efficacy at 320 g/ha against AMARE in % (Amaranthus retroflexus [10]): 100%
- Post-emergence efficacy at 320 g/ha against POAAN in % (Poa annua [11]): 100%
- Post-emergence efficacy at 320 g/ha against DIGSA in % (Digitaria sanguinalis [12]): 90%
- Pre-emergence efficacy at 80 g/ha against DIGSA in % (Digitaria sanguinalis [13]): 100%
- Post-emergence efficacy at 80 g/ha against VERPE in % (Veronica persica [14]): 100%
- Pre-emergence efficacy at 80 g/ha against MATIN in % (Matricaria inodora [15]): 100%
- Post-emergence efficacy at 80 g/ha against AMARE in % (Amaranthus retroflexus [16]): 90%
- Pre-emergence efficacy at 320 g/ha against SETVI in % (Setaria viridis [17]): 90%
- Post-emergence efficacy at 320 g/ha against SETVI in % (Setaria viridis [18]): 90%
- Pre-emergence efficacy at 80 g/ha against ECHCG in % (Echinochloa crus-galli [19]): 80%
- Post-emergence efficacy at 320 g/ha against VERPE in % (Veronica persica [20]): 100%
- Pre-emergence efficacy at 320 g/ha against VERPE in % (Veronica persica [21]): 100%
- Pre-emergence efficacy at 320 g/ha against ECHCG in % (Echinochloa crus-galli [22]): 90%
- Post-emergence efficacy at 320 g/ha against ECHCG in % (Echinochloa crus-galli [23]): 100%
- Pre-emergence efficacy at 320 g/ha against AMARE in % (Amaranthus retroflexus [24]): 100%
- Pre-emergence efficacy at 80 g/ha against KCHSC in % (Kochia scoparia [25]): 100%
- Pre-emergence efficacy at 80 g/ha against POLCO in % (Polygonum convolvulus): 100%
- Pre-emergence efficacy at 320 g/ha against POAAN in % (Poa annua [26]): 100%
- Post-emergence efficacy at 320 g/ha against KCHSC in % (Kochia scoparia [27]): 100%
- Pre-emergence efficacy at 320 g/ha against LOLRI in % (Lolium rigidum): 90%
- Post-emergence efficacy at 80 g/ha against VIOTR in % (Viola tricolor [28]): 90%
- Post-emergence efficacy at 320 g/ha against ABUTH in % (Abutilon theophrasti [29]): 90%
- Pre-emergence efficacy against SETVI (Setaria viridis [30]): 100%
- Pre-emergence efficacy at 320 g/ha against DIGSA in % (Digitaria sanguinalis [31]): 100%
